In PMC8482806, “A Novel Blood-Brain Barrier-Permeable Chemotherapeutic Agent for the Treatment of Glioblastoma” (Cureus, 2021):

Experiments:
hLAT1 = target: T1, hLAT1 (Homo sapiens, UniProt Q01650); test: Substrate transport inhibition, [3H]-gabapentin uptake in LLC-PK1 cells expressing hLAT1; type: cell-based
T1 construct: host or cells: LLC-PK1 (tetracycline-inducible, Invitrogen Gateway pT-REx System)
Procedure: (§1) Substrate transport inhibition studies were conducted with LLC-PK1 cells inducibly expressing either hLAT1 or hLAT2. Cells were plated in growth media with 1 μg/mL doxycycline at 30,000 cells/well in 96-well plates. Sixteen hours after plating, cells were treated with butyrate at a final concentration of 5 mM. The following day, cells were washed with PBS and incubated in the presence or absence of various concentrations of QBS10072S with 30,000 cpm/well of either [3H]-gabapentin (LAT1) or [3H]-leucine (LAT2) in PBS for 15 minutes at room temperature. The non-specific cell-bound activity was determined by the addition of 5 mM unlabeled gabapentin (LAT1) or leucine (LAT2). Unincorporated radioactivity was removed, and cells were washed three times with ice-cold PBS. Cells were lysed by adding scintillation fluid to each well, and cell-associated radioactivity was determined via scintillation counting using a multichannel 96-well plate reader (MicroBeta Trilux, Perkin Elmer, Waltham, MA). Data were expressed as the percent of specific radioactivity uptake in wells with no compound added. LC50s were determined by non-linear curve-fitting using GraphPad Prism (San Diego, CA).

hLAT2 = target: T2, hLAT2 (Homo sapiens, UniProt Q9UHI5); test: Substrate transport inhibition, [3H]-leucine uptake in LLC-PK1 cells expressing hLAT2; type: cell-based
T2 construct: host or cells: LLC-PK1 (tetracycline-inducible, Invitrogen Gateway pT-REx System)
T2 sequence (Q9UHI5 1-535): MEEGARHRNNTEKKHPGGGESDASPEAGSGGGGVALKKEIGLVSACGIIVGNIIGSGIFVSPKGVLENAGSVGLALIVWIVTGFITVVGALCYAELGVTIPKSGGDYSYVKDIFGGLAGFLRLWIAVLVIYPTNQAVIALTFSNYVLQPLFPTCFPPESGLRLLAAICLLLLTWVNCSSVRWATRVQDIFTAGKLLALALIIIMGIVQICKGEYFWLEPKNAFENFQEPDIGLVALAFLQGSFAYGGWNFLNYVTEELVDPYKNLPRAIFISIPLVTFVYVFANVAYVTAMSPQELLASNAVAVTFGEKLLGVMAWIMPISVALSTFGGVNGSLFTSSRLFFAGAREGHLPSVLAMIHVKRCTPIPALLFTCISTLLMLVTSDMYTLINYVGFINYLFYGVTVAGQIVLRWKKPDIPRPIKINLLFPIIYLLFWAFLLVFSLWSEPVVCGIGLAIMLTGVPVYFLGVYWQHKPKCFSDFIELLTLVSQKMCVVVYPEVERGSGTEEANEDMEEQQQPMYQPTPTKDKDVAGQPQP
T2 sequence (P08195 1-529 partner): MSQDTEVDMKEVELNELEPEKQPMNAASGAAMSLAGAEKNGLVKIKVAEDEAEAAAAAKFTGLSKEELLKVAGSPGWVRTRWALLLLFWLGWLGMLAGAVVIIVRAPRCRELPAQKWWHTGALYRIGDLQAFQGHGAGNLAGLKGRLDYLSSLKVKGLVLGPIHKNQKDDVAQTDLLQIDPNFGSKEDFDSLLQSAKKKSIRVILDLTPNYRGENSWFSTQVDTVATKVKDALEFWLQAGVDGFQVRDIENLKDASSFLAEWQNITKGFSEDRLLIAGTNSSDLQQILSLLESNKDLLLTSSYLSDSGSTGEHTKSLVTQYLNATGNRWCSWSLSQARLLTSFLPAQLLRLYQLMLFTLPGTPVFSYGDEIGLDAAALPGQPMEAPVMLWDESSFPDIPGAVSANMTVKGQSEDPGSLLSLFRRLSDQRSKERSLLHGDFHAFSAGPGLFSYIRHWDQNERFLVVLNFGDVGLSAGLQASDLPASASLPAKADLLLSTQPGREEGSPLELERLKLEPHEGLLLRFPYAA
Procedure: as §1

[1] = Cytotoxicity in normal human astrocytes (CellTiter-Glo); type: cell-based; conditions: normal human astrocytes (NHA), read-out: LC50
Procedure: In vitro activity of QBS10072S was assessed using a modified clonogenic cell viability assay in 96-well clear-bottom plates. […] For GBM cell lines, 2000 cells/well were plated. On day 2 (GBM) or day 3 (LLC-PK1) after original plating, cells were washed twice with PBS and incubated with 50 μL of various concentrations of QBS10072S in PBS in at least quadruplicate. After 30 minutes at 37°C, 200 μL of growth medium was added to each well. Clonal populations were allowed to grow until the control wells (mock treatment) were near confluence (7 to 10 days). At this point, 170 μL media were removed and 60 μL CellTiter-Glo® (Promega, Madison, WI) were added to each well. Plates were placed on an orbital shaker for three minutes to lyse the cells and then incubated for an additional 10 minutes at RT to stabilize the luminescent signal. Luminescence was recorded using an EnSpire® Multimode Plate Reader (Perkin Elmer). Background (luminescence from wells incubated with 100 μM melphalan or lomustine) was subtracted and data were normalized to the control. EC50s were determined by non-linear regression using GraphPad Prism.
Cells were incubated with a titration of QBS10072S or melphalan and cell viability was measured by CellTiter-Glo. LC50 values for each compound were determined.

U87 cells = test: WST1 cell viability assay, U87; type: cell-based; conditions: Homo sapiens, U-87 MG; U87; QBS10072S 1 hour in PBS, TMZ 2 days, read day 7; read-out: LC50 (μM ± SD)
Procedure: (§2) In vitro activities of QBS10072S and temozolomide (TMZ) in U87 and U87-MGMT cells were assessed using the WST1 cell viability assay in 96-well plates in which 500/well of cells were plated in sextuplets for each condition. To avoid cell loss, the following washing and medium removing procedures were all done using a P200 pipet without vacuum aspiration. For QBS10072S treatment, cells were washed with PBS the next day and incubated with 50 μL of various concentrations of QBS10072S in PBS for 1 hour at 37°C. After incubation, 150 μL of growth medium was added to each well. The medium was subsequently changed every two days until day 7. For TMZ treatment, cells were treated with 100 μL of various concentrations of TMZ in a growth medium for 2 days. After incubation, cells were put back in a normal growth medium and continued culturing for five days. In the end, 10 μL of WST1 reagent was added to each well and incubated at 37°C for 4h before subjecting to plate reading at 450 nm and 690nm using an EnSpire multimode plate reader (PerkinElmer). Background (OD690nm) was subtracted and data were normalized to the control. LC50s were determined by non-linear regression using GraphPad Prism (GraphPad Software Inc., San Diego, California)

U87-MGMT cells = test: WST1 cell viability assay, U87-MGMT; type: cell-based; conditions: Homo sapiens; U87-MGMT; QBS10072S 1 hour in PBS, TMZ 2 days, read day 7; read-out: LC50 (μM ± SD)
Procedure: as §2

[2] = test system: U251 intracerebral human GBM xenograft; test: U251 intracerebral human GBM xenograft in athymic mice (BLI, survival); type: in vivo, mouse; conditions: temozolomide 4 mg/kg oral gavage daily for 5 days plus RT 1.5 Gy daily for 5 days; vehicle 35
Procedure: Five-week-old female athymic mice (nu/nu, homozygous: Simonsen Laboratories, Gilroy, CA), housed under aseptic conditions, received intracranial tumor cell injection as previously described and as approved by the University of California San Francisco Institutional Animal Care and Use Committee, Protocol #: AN111064-03. Briefly, mice were anesthetized by intraperitoneal injection of ketamine (100 mg/kg) and xylazine (10 mg/kg) and injected with 3 μL of tumor cell suspension (300,000 cells total) into the right caudate-putamen. Coordinates: 3 mm to the right from bregma, on top of the coronal suture, and 3.5 mm depth. Injection rate: ~30 second/uL. For treatment studies, eight mice were used for each group for LN229 studies and nine mice per group for U251 studies. Treatments began when tumors entered the log-phase of growth as measured by luminescence, for the LN229 experiment on Day 21 and for U251 experiments on Day 14.
Dosing levels and frequency are described in the figure legends.
For bioluminescence imaging (BLI), mice were anesthetized as above, then administered 150 mg/kg of luciferin (D-luciferin potassium salt, Gold Biotechnology, St. Louis, MO) via intraperitoneal injection. Ten minutes after luciferin injection, mice were examined for tumor bioluminescence with an IVIS Lumina imaging station and Living Image software (Caliper Life Sciences, Alameda, CA), and regions of interest were recorded as photons per second per steradian per square cm.
Mice were anesthetized via inhalation of 2.5% isoflurane with 1 L of oxygen per minute for five minutes prior to being positioned on an irradiation platform located 16.3 cm from a cesium-137 source (JL Shepherd & Associates, San Fernando, CA). Eyes, respiratory tracts, and bodies were protected with lead shielding. Mice received whole-brain irradiation at a dose rate of 247 cGy/min until 1.5 Gy radiation had been administered. After irradiation, animals were monitored until recovery. Mice were irradiated once daily for five consecutive days. All mice received the first radiation dose when tumors were in a log-phase growth (Day 14) as determined by BLI.
Tumor-bearing mice were treated with temozolomide (TMZ) 4 mg/kg via oral gavage, starting on day 14 post U251 cell injection once daily for five days - concurrent therapy with RT. TMZ was obtained from the UCSF hospital pharmacy and formulated with the Ora-Plus suspending vehicle (Perrigo, Dublin, Ireland) with a working concentration of 1 mg/mL.

T1 sequence (Q01650 whole entry, one chain of several): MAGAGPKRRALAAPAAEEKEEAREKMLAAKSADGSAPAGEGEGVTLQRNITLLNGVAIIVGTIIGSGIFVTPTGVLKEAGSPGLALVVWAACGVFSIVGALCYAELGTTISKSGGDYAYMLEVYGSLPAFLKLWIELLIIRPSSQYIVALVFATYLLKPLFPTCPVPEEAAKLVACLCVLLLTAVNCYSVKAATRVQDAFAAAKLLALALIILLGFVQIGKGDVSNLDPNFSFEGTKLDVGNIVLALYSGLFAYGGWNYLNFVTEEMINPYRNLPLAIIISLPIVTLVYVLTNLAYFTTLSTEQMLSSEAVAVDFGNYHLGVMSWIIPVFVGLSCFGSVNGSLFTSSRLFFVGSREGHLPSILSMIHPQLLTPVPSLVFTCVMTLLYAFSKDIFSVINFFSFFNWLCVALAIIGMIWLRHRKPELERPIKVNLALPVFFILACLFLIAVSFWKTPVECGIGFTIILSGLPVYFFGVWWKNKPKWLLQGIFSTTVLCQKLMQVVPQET

## N[C@@H](Cc1ccc(N(CCCl)CCCl)cc1)C(=O)O [Melphalan, melphalan, reference compound]
hLAT1
  IC50: 170 µM
hLAT2
  IC50: 390 µM
[1]
  CC50 at 30 min: 0.86 µM

## Cn1nnc2c(C(N)=O)ncn2c1=O [TMZ, temozolomide, reference compound]
U87 cells
  CC50: 82.3 ± 10.5 µM
U87-MGMT cells
  CC50: > 200 µM
[2]
  median survival time: 48 days
